Laboratory results reported in ChEMBL document CHEMBL1138169, “Oxadiazole derivatives as a novel class of antimitotic agents: Synthesis, inhibition of tubulin polymerization, and activity in tumor cell lines” (Bioorg Med Chem Lett, 2006).

Assays:
[1] = Cmax in mouse at 60 mg/kg, ip; format: ADME, organism-based; design: dose 60 mg/kg, route intraperitoneal; conditions: in vivo
[2] = Half life in mouse at 60 mg/kg, ip; format: ADME, organism-based; design: dose 60 mg/kg, route intraperitoneal; conditions: in vivo
[3] = AUC (0-4 h) in mouse at 60 mg/kg, ip; format: ADME, organism-based; design: time < 4 hr, dose 60 mg/kg, route intraperitoneal; conditions: plasma
[4] = biological target: Tubulin; experiment: Inhibition of tubulin polymerization; format: functional, Homo sapiens
[5] = test system: A-431; experiment: Cell cycle arrest in A431 cells by accumulation at G2/M phase; format: functional, cell-based; conditions: Homo sapiens
[6] = test system: NCI/ADR-RES; experiment: Cell cycle arrest in NCI/ADR (MDR) cells by accumulation at G2/M phase; format: functional, cell-based; conditions: Homo sapiens
[7] = biological target: Tubulin; experiment: Displacement of [3H]colchicine from tubulin at 65 nM; format: protein-complex assay, Homo sapiens
[8] = Cmax in mouse at 60 mg/kg, po; format: ADME, organism-based; design: dose 60 mg/kg, route oral; conditions: in vivo
[9] = Half life in mouse at 60 mg/kg, po; format: ADME, organism-based; design: dose 60 mg/kg, route oral; conditions: in vivo
[10] = AUC (0-4 h) in mouse at 60 mg/kg, po; format: ADME, organism-based; design: time < 4 hr, dose 60 mg/kg, route oral; conditions: plasma

SMILES	IC50 [4]	EC50 [5]	other results
COc1cc(Nc2ncccc2-c2n[nH]c(Nc3ccc4c(c3)OCO4)n2)cc(OC)c1			Cmax [1]: 7.3 µM; half-life [2]: 0.62 h; AUC(0-t) at 4 h [3]: 13.6 µM·h
c1cncc(CNc2ncccc2-c2nnc(Nc3ccc4c(c3)OCCO4)o2)c1	700 nM	13 nM	EC50 [6]: 19 nM; IC50 [7]: 30 nM; Cmax [1]: 6.5 µM; half-life [2]: 0.8 h; AUC(0-t) at 4 h [3]: 6.7 µM·h
c1cnc(NCc2ccc3c(c2)OCO3)c(-c2nnc(Nc3ccc4c(c3)OCCO4)o2)c1	500 nM	18 nM	
CS(=O)(=O)Nc1ccc(CNc2ncccc2-c2nnc(Nc3ccc4c(c3)OCO4)o2)cc1	3800 nM	71 nM	
Fc1ccc(CNc2ncccc2-c2nnc(Nc3ccc4c(c3)OCCO4)o2)cc1F	700 nM	15 nM	
Fc1ccc(CNc2ncccc2-c2nnc(Nc3ccc4c(c3)OCO4)o2)cc1F	2200 nM	51 nM	
CS(=O)(=O)Nc1ccc(CNc2ncccc2-c2nnc(Nc3ccc4c(c3)OCCO4)o2)cc1	2000 nM	23 nM	
CN(c1ccc2c(c1)OCCO2)c1nnc(-c2cccnc2NCc2ccccn2)o1	> 30000 nM		
c1cnc(NCc2ccncc2)c(-c2nnc(Nc3ccc4c(c3)OCO4)o2)c1	1000 nM	20 nM	EC50 [6]: 7.8 nM; IC50 [7]: 30 nM; Cmax [1]: 15.1 µM; half-life [2]: 2.6 h; AUC(0-t) at 4 h [3]: 52.6 µM·h
c1cnc(NCc2ccncc2)c(-c2nnc(Nc3ccc4c(c3)OCCO4)o2)c1	29900 nM	18 nM	
Fc1ccc(CNc2ncccc2-c2nnc(Nc3ccc4c(c3)OCCO4)o2)cc1	5000 nM	60 nM	
c1coc(CNc2ncccc2-c2nnc(Nc3ccc4c(c3)OCCO4)o2)c1	2000 nM	45 nM	
c1cnc(NCc2ccc3c(c2)OCCO3)c(-c2nnc(Nc3ccc4c(c3)OCCO4)o2)c1	1800 nM	57 nM	
COc1ccc(CNc2ncccc2-c2nnc(Nc3ccc4c(c3)OCCO4)o2)cc1	1600 nM	23 nM	
c1cnc(NCc2cnccn2)c(-c2nnc(Nc3ccc4c(c3)OCCO4)o2)c1	2200 nM	31 nM	
c1cnc(NCc2cnccn2)c(-c2nnc(Nc3ccc4c(c3)OCO4)o2)c1	9600 nM	210 nM	
c1cncc(CNc2ncccc2-c2nnc(Nc3ccc4c(c3)OCO4)o2)c1	8800 nM	31 nM	
c1coc(CNc2ncccc2-c2nnc(Nc3ccc4c(c3)OCO4)o2)c1	4900 nM	130 nM	
FC1(F)Oc2ccc(Nc3nnc(-c4cccnc4NCc4ccccn4)o3)cc2O1	13300 nM	780 nM	
c1cnc(NCC2CCCO2)c(-c2nnc(Nc3ccc4c(c3)OCCO4)o2)c1 (centres undefined)	1700 nM	160 nM	EC50 [6]: 128 nM; IC50 [7]: 390 nM; Cmax [1]: 16.4 µM; half-life [2]: 0.78 h; AUC(0-t) at 4 h [3]: 26.3 µM·h
c1ccc(COc2ncccc2-c2nnc(Nc3ccc4c(c3)OCCO4)o2)nc1	18100 nM	260 nM	
COc1ccc(Nc2nnc(-c3cccnc3NCc3ccccn3)o2)cc1	1500 nM	20 nM	
c1cnc(NCC2CCCO2)c(-c2nnc(Nc3ccc4c(c3)OCO4)o2)c1 (centres undefined)	15500 nM	330 nM	
COc1ccc(/C=C\c2cc(OC)c(OC)c(OC)c2)cc1O [COMBRETASTATIN A4]		3.5 nM	EC50 [6]: 1.5 nM
CC(=O)O[C@H]1C(=O)[C@@]2(C)[C@H]([C@H](OC(=O)c3ccccc3)[C@]3(O)C[C@H](OC(=O)[C@H](O)[C@@H](NC(=O)c4ccccc4)c4ccccc4)C(C)=C1C3(C)C)[C@]1(OC(C)=O)CO[C@@H]1C[C@@H]2O [PACLITAXEL]		9 nM	EC50 [6]: > 10000 nM

Now from value to molecule, other results behind:

IC50 [4]	EC50 [5]	SMILES	other results
> 30000 nM		c1ccc(CNc2ncncc2-c2nnc(Nc3ccc4c(c3)OCCO4)o2)nc1	
1200 nM	14 nM	c1ccc(CNc2ccccc2-c2nnc(Nc3ccc4c(c3)OCCO4)o2)nc1	EC50 [6]: 37 nM; IC50 [7]: 390 nM; Cmax [1]: 6.4 µM; half-life [2]: 1.5 h; AUC(0-t) at 4 h [3]: 17.2 µM·h
2400 nM	99 nM	Cc1ccc(-c2nnc(Nc3ccc4c(c3)OCCO4)o2)c(NCc2ccccn2)n1	
1400 nM	35 nM	c1ccc(CNc2ccccc2-c2cnc(Nc3ccc4c(c3)OCCO4)o2)nc1	EC50 [6]: 103 nM; IC50 [7]: 10 nM; Cmax [1]: 4.6 µM; half-life [2]: 2.43 h; AUC(0-t) at 4 h [3]: 14.4 µM·h
> 30000 nM		c1ccc(CNc2ccccc2-c2csc(Nc3ccc4c(c3)OCCO4)n2)nc1	
> 30000 nM		c1ccc(CNc2ccncc2-c2nnc(Nc3ccc4c(c3)OCCO4)o2)nc1	
1900 nM	16 nM	c1ccc(CNc2ncccc2-c2nnc(Nc3ccc4c(c3)OCCO4)o2)nc1	EC50 [6]: 27 nM; IC50 [7]: 190 nM; Cmax [1]: 12.5 µM; Cmax [8]: 3.8 µM; half-life [2]: 2.7 h; half-life [9]: 2.2 h; AUC(0-t) at 4 h [3]: 31.2 µM·h; AUC(0-t) at 4 h [10]: 8.8 µM·h
2000 nM	75 nM	c1ccc(CNc2nccnc2-c2nnc(Nc3ccc4c(c3)OCCO4)o2)nc1	
4400 nM	22 nM	c1ccc(CNc2ccsc2-c2nnc(Nc3ccc4c(c3)OCCO4)o2)nc1	EC50 [6]: 46 nM; IC50 [7]: 75 nM; Cmax [1]: 59.2 µM; half-life [2]: 0.75 h; AUC(0-t) at 4 h [3]: 102 µM·h
1700 nM	49 nM	c1ccc(CNc2ncccc2-c2nnc(Nc3ccc4c(c3)OCO4)o2)nc1	EC50 [6]: 256 nM; IC50 [7]: 30 nM; Cmax [1]: 4.9 µM; half-life [2]: 4.1 h; AUC(0-t) at 4 h [3]: 21.5 µM·h
> 30000 nM		c1ccc(CNc2ccccc2-c2c[nH]c(Nc3ccc4c(c3)OCCO4)n2)nc1	
3400 nM	82 nM	Fc1cnc(NCc2ccccn2)c(-c2nnc(Nc3ccc4c(c3)OCCO4)o2)c1	
> 30000 nM		FC(F)(F)c1ccc(-c2nnc(Nc3ccc4c(c3)OCCO4)o2)c(NCc2ccccn2)n1	
